Where two headings read alike, the source gives them in different places. One block for each compound: values may come before it.
Legend:
[1] = system: Caco-2 cells (PAT1 overexpression); experiment: Cell uptake of micelle/polystyrene nanoparticles (confocal, flow cytometry); type: cell-based, human
Experimental: Cell uptake of polystyrene nanoparticles for Caco-2 and 3T3 cells. Caco-2 human colon epithelial cells and NIH 3T3 mouse embryonic fibroblast cells were used as received from the American Type Culture Collection without further authentication, and were cultured in Dulbecco's Modified Eagle's Medium (DMEM) and Eagle's Minimum Essential Medium (EMEM) at 37° C. in a 5% CO2 environment respectively. […] Cells were seeded in a 12-well plate at a density of 1×10^5 cells per well overnight, washed twice with pre-wared PBS, and incubated with DSPE-PCB/polystyrene nanoparticles in culture medium at 37° C. for 2 h. […] Cellular uptake of DSPE-PCB/polystyrene nanoparticles in different groups was examined by an Zeiss LSM 780 confocal laser scanning microscope. The Z-stack method was used for three-dimensional visualization, where the section thickness was 2.5 μm, the step interval was 2 m, and the total z-stack length was 44 μm (23 slices). Fluorescent signal was quantified by using the image J software. Cellular uptake was also quantitively measured with flow cytometry (BD FACSAria II flow cytometer) and analyzed with FlowJo X software.

[2] = system: intestine epithelial tight junctions; experiment: TEM imaging of tight junctions after ileum injection; conditions: 1 h post ileum injection
Experimental: (§1) 1 h post ileum injection of the formulations, mice were euthanized and small parts of ileum (5×5 mm) near to the injection site were collected and washed with PBS. The samples were continuously fixed in 2.5% glutaraldehyde+2.5% paraformaldehyde in 0.1M PBS buffer and 4% osmium tetroxide solution and transferred into Beem® embed capsule with micro-embed resin added to embed samples. The obtained blocks were further sectioned with ultra-microtomy to obtain sections with thickness of ˜70 nm. These sections were retrieved via copper grid and stained with 1% lead citrate and 4% uranyl acetate separately, and then visualized under a JEM-100CX II electron microscope operated at 100 kV.

Caco-2 monolayers = experiment: Transepithelial electrical resistance (TEER) study
Experimental: Transepithelial electrical resistance (TEER) study. Caco-2 cells were suspended in EMEM supplemented with 20% FBS, and seeded at a density of 2×10^5 cells per well on Corning® Transwell polyester membrane cell culture inserts and incubated for 96 h. The TEER was monitored to confirm proper barrier formation and only monolayers with initial TEER values of at least 300Ω×cm^2 were used for TEER or molecular permeability experiments. Prior to the study, the medium in the apical and basolateral chambers was replaced with prewarmed EMEM. After equilibration at 37° C. for 30 min, the apical solution was replaced with Sodium decanoate, polysorbate 80 or DSPE-PCB (0.2% w/v) in EMEM. After incubation for 4 h, the TEER value of each insert was measured with EVOM2
Epithelial volt/ohmmeter to explore the integrity of the tight junction.

[3] = system: intestinal tight junctions; experiment: Lactulose-mannitol intestinal permeability test; type: in vivo; conditions: healthy and diabetic mice, 1 h after ileum co-injection, vs control without micelles
Experimental: The lactulose-mannitol intestinal permeability test. Healthy and diabetic mice remained fasted for 8 h and were restricted from water for 3 h before the experiment. Then mice received 500 μL water through oral gavage. 1 h later, the lactulose, mannitol, and free micelles were co-administered via ileum injection at the dose of 40/8/5.2 mg/ml (50 μL) and the wound is closed with wound clips. 1 h post ileum injection, the urine was collected, and the ileum tissue surrounding the injection site was collected for TEM imaging. The concentrations of lactulose and mannitol were measured using LC-MS-MS, with a mobile phase of 10 mM ammonium formate in water and acetonitrile (90:10), and an Agilent advanced bio glucan mapping column (2.1×100 mm×2.7 μm) (precursor and product: mannitol 180.7→89; lactulose 341.2→160.8).

healthy mice = experiment: Long-term safety of repeated consecutive dosing; conditions: for serum endotoxin and pro-inflammatory cytokines (TNF-α, IFN-γ, IL-6): healthy mice, oral gavage twice daily 14 days, day 0 and 14, before and 1 h after dose
Experimental: Long-term safety of repeated consecutive dosing. […] At day 14, the lactulose/mannitol experiment was conducted to examine potential tight junction opening through the lactulose-mannitol intestinal permeability test. In addition, the ileum tissue was collected and fixed in 10% zinc fixative (BD Pharmingen™), dehydrated in ethanol, and embedded in paraffin. Five-μm cross-sections of intestine tissue were deparaffinized, rehydrated, and stained with Hematoxylin and Eosin. Histological morphology was examined using an EVOS XL Core Cell Imaging microscope. In addition, healthy mice received the same oral administered with DSPE-PCB micelle, saline, Polysorbate 80, or sodium decanoate twice daily for 14 consecutive days (the same dose as above). On day 0 and 14, before and 1 h after the oral administration, blood serum was collected and the endotoxin and pro-inflammatory cytokines (IFN-γ, IL-1β, ILL-4, IL-6, IL-12, TNF-α) were measured with Pierce LAL Chromogenic Endotoxin Quantitation Kit and the mouse magnetic Luminex® assays (Lot No: L131929).

[4] = system: intestine epithelial tight junctions; conditions: mouse, in vivo
Experimental: as §1

[5] = type: in vitro ADME, porcine
Experimental: Tracking nanoparticle diffusion in mucus. Nanoparticle diffusion behavior in mucus was studied by modifying methods as described in Lai, S. K. et al. P Natl Acad Sci USA 104, 1482-1487 (2007) and Olmsted, S. S. et al. Biophys J 81, 1930-1937 (2001). Mucus was reconstituted by dissolving porcine stomach mucin in phosphate buffered saline (PBS) at 30 mg/ml. Nanogels were added into 100 μl mucus to reach a final concentration of 3% vol/vol (final particle concentration, 8.25×10^−7 wt/vol) and incubated for 1 h on a Nunc™ glass bottom dish (0.17 mm thickness for the inside bottom glass) before observation. Movies were captured with 64×oil-immersion objective in a spinning disc confocal microscope (Yokogawa CSU-X1M 5000 microlens, Zeiss LSM 800). For each nanogel sample, trajectories of n=50 particles were analyzed, and three samples were examined for each type of nanogel. MSD was calculated with the equation of MSD=<|r(t)-r(0)|^2> at a temporal resolution of 200 ms for 20 s.

[6] = system: streptozotocin (STZ)-induced C57BL/6 diabetic mice; experiment: Blood glucose lowering on STZ-induced diabetic mice (ileum injection or oral gavage); type: in vivo; conditions: ileum injection, 20 IU/Kg, compared with saline baseline
Experimental: Animals and diabetes induction. All animal experiments were performed according to the National Institute of Health (NIH) guidelines for animal research under a protocol approved by the Institutional Animal Care and Use Committee (IACUC) at Wayne State University. To establish streptozotocin (STZ)-induced diabetic mice model, healthy mice (C57BL/6J, male, 6-8 weeks of age, Jackson Lab) received a daily intraperitoneal injection of 5 mg/ml STZ at 50 mg/kg body weight for 5 consecutive days. 17 days after the first injection, body weight and blood glucose were measured to confirm the diabetic status. Diabetic mice with blood glucose above 300 mg/dL were selected for further in vivo test. To establish STZ-rat model, healthy rats (Sprague Dawley rat, male, ˜180 g, Charles River) received a one-time intraperitoneal injection of 65 mg/kg STZ. 10 days after injection, diabetic rats with blood glucose above 300 mg/dL were selected for further in vivo test.
Ileum injection surgery. Mice received buprenorphine SR subcutaneously and surgical anesthesia was managed by isoflurane inhalation. The surgical site (abdomen) was shaved and prepped with three alternating scrubs of betadine and alcohol. On prepped animal, a single incision (1.5-2 cm) was made through abdomen skin. About 0.5-1 cm ileum of intestine was pulled-out from the enterocoelia. […]

Caco-2 cells [7] = system: Caco-2 cells
Caco-2 cells [8] = experiment: In vitro cytotoxicity (MTT) and live/dead assay; type: cell-based, human; conditions: 0.01-1 mg/ml, 24 h
Experimental: In vitro cytotoxicity and live/dead assay. In vitro cytotoxicity was evaluated using MTT assay with Caco-2 cells. Caco-2 cells were seeded on 96-well plates at a density of 2×10^4 cells per well in Eagle's Minimum Essential Medium (EMEM) with 20% FBS and cultured in 5% CO2 atmosphere at 37° C. for 24 h. Then the cells were washed twice with HBSS and incubated with 100 μl of DSPE-PCB micelle or Polysorbate 80 solutions in EMEM with concentrations of 0.01, 0.1, and 1.0 mg/ml, respectively. After 24 h of incubation at 37° C., the DSPE-PCB micelle and Polysorbate 80 solution were replaced with 100 μL of MTT solution (0.5 mg/ml in HBSS), and the cells were incubated for an additional 4 h at 37° C. Subsequently, the supernatant was carefully removed and 150 μL of dimethyl sulfoxide (DMSO) was added to each well. The absorbance of the resultant solutions was measured at 570 nm using a microplate reader (Bio-Rad, USA). Untreated cells were used as negative control for 100% cell viability. Cell viability was expressed as percentage of absorbance relative to the control. Live/dead assay was conducted by staining the cells with 100 μL of PBS buffer containing 2 μM Calcein and 4 μM ethidiumhomodimer-1 (Live/Dead viability/cytotoxicity kit, Invitrogen, CA, USA). The cells were incubated at room temperature for 30 minutes and observed by the EVOS FL fluorescence microscope (AMG).

Caco-2 cells [9] = experiment: LDH leakage assay; conditions: % of untreated cell negative control; 1% with sonication, complete lysis, positive control

inhibition of Caco-2 uptake of DSPE-PCB micelle particles by PAT1 substrates ([1]; pretreatment 5 mg/ml, 1 h): significantly inhibited
Compound: N[C@@H](Cc1c[nH]c2ccccc12)C(=O)O [L-tryptophan]

Compound: CCCCCCCCCC(=O)[O-].[Na+] [sodium decanoate]
tight junction morphology (TEM) [2]: even more severe tight junction opening | TEER / permeability of Caco-2 cell layers (Caco-2 monolayers; 0.2% w/v, 4 hours): drastically decreased TEER values | excretion ratio of lactulose to mannitol (L/M) in urine [3]: drastically higher L/M ratio values | serum endotoxin and pro-inflammatory cytokines (TNF-α, IFN-γ, IL-6) (healthy mice): observable increase

tight junction morphology (TEM) [4]: intact tight junctions | MSD relative to Polysorbate 80 micelles [5]: ~12 times
Compound: DSPE lipid conjugated with poly(N-methacryloyloxyethyl-N,N-dimethylammonium-α-N-methylcarboxybetaine) [DSPE-PCB micelles]
TEER / permeability of Caco-2 cell layers (Caco-2 monolayers; Caco-2): did not increase the permeability of Caco-2 cell layers | small intestine histology (H&E) on day 14 (healthy mice; mouse, in vivo, po): no significant structural damage | tight junction opening, urine lactulose/mannitol test at day 14 (healthy mice; mouse, in vivo, po): no significant tight junction opening

Compound: Native insulin: native insulin not encapsulated by any carrier
glucose-lowering effect [6]: hardly achieved any glucose-lowering effect

Compound: Polysorbate 80
cellular uptake ([1]; Caco-2 cells compared with 3T3 cells, 2 h, 37 C): no observable polysorbate 80 uptake | tight junction morphology (TEM) [4]: severe tight junction opening | lactate dehydrogenase (LDH) release (Caco-2 cells [7]): no significant lactate dehydrogenase (LDH) release | TEER / permeability of Caco-2 cell layers (Caco-2 monolayers; Caco-2): drastically decreased TEER values | excretion ratio of lactulose to mannitol (L/M) in urine [3]: drastically higher L/M ratio values | cytotoxicity (cell viability, MTT, live/dead staining) (Caco-2 cells [8]): no significant cytotoxicity | serum endotoxin and pro-inflammatory cytokines (TNF-α, IFN-γ, IL-6) (healthy mice): observable increase

Compound: Triton X-100
LDH leakage level (Caco-2 cells [9]): 240%

— US12551434B2, “Zwitterionic polymer particle compositions and related methods” (WAYNE STATE UNIVERSITY, priority 2020, dated 2026)
